The source of these data is paper PMC6152024 (Molecules : A Journal of Synthetic Chemistry and Natural …, 2017).

Experiment [1] relates to hepatic CYP3A mRNA. The experiment can be described thus: CYP3A expression assay (real-time PCR) in rat liver. In kind it is in vivo. The settings on record: normalized to GAPDH. Here is the method: Rats were randomly divided into four groups (groups A−D, n = 5), respectively. In brief, rats in group A (vehicle control group) were i.g. administered with saline (10 mL/kg), and were euthanized 72 h later. Rats in groups B−D were i.g. administered with Gom A at dose of 20.8 mg/kg (50 µmol/kg, same with pharmacokinetic study), and euthanized 24, 48 and 72 h respectively after Gom A treatment. After euthanization, rat livers were immediately collected, washed with ice-cold saline, and stored at −80 °C for CYP3A protein expression assay.
To determine CYP3A mRNA content in rat liver, the liver samples were homogenized and the total RNA was extracted from liver samples using RNeasy Mini Kit according to the manufacturer’s instructions (Qiagen). The concentration of total RNA was determined by UV spectra at 260/280 nm, and the purity was determined by calculating the ration of UV absorbance. 2 µg of total RNA in a total volume of 50 µL (1 µg/25 µL) was reverse transcribed into template cDNA using dNTP mix (1 mM), random primers (0.5 µg/mL), AMV RT (22 U/µL), MgCl2 (25 mM) and RT buffer (10×).
For qRT-PCR, forward and reverse primer sequences (Table 2) of CYP3A gene were used. In a Stratagene Mx3005P sequence detection system (Agilent Technologies Agilent, Santa Clara, CA, USA), 50 ng of cDNA/sample and 10 µM forward and reverse primers were added to a total reaction mixture of 20 µL of SYBR Select Master Mix (Invitrogen). GAPDH was applied as the house-keeping gene. All assays were performed in triplicate. […] The CYP3A mRNA levels of groups A−D were expressed as a ratio of induced to vehicle control group (group A).

In experiment [2] the target is T1, CYP3A (Homo sapiens, UniProt P08684). The experiment can be described thus: Reversible CYP3A inhibition, testosterone 6β-hydroxylation in human liver microsomes. In kind it is in vitro ADME. The note with it: HLMs, Lineweaver-Burk plot. As for the experimental part:
(§1) A NADPH regenerating system (NADPH-gs, containing 10 mM glucose-6-phosphate, 5 mM magnesium chloride, 1 U/mL glucose-6-phosphate dehydrogenase and 1 mM NADP+) was constructed. The metabolite of Tes, 6OH-Tes, was assayed by UHPLC-MS method (I) for CYP3A activity assessment.
The CYP3A inhibition by Gom A was preliminarily evaluated. […] After a 5 min warm up period, reactions were initiated with addition of NADPH-gs. Incubations were conducted at 37 °C for 10 min and then terminated by the addition of 200 µL ice-cold acetonitrile containing 18 ng/mL phenacetin (IS-I). […] Incubations were processed and terminated as described earlier.
Pharmacokinetic profiles of CTX and DCCTX were estimated by one-compartmental model using the DAS 2.0 software ([…], Medical College of Wannan, Anhui, China). Data were expressed as mean ± SD. Comparisons between two groups were performed using one-way ANOVA followed by LSD test in the condition of variance homogeneity or Dunnett T3 test in the case of variance heterogeneity. […] IC50 values of Gom A were determined by nonlinear regression analysis using GraphPad Prism 5.01 software (GraphPad Software Inc., San Diego, CA, USA). The mode of inhibition was verified by Lineweaver-Burk plots of the enzyme kinetic data, and the KI value was determined by linear regression analysis with GraphPad Prism 5.01 (GraphPad Software Inc.). […]
On the technique in general: Microsomes from liver hold many membrane-bound enzymes, among them those of drug oxidation.

For experiment [3], the target named is T1, CYP3A. Nature of the experiment: IC50 shift assay (time- and NADPH-dependent inhibition) in HLMs. In kind it is in vitro ADME. Here is the method:
as §1
In a final volume of 100 µL, Gom A at different concentrations (0, 0.08, 0.31, 0.63, 2.5, 10 and 40 µM) was preincubated with 10 × HLMs (5 mg/mL) at 37 °C with NADPH-gs in PBS (0.1 M). After 30 min, the incubation mixture was diluted 10 folds using PBS (0.1 M). Then 100 µL of the diluted mixture was added into a secondary incubation containing NADPH-gs and 25 µM Tes. The final volume was 200 µL. After 10 min incubation, the reaction was terminated by the addition of 200 µL ice-cold acetonitrile containing 18 ng/mL phenacetin (IS-I). […]
Pharmacokinetic profiles of CTX and DCCTX were estimated by one-compartmental model using the DAS 2.0 software ([…], Medical College of Wannan, Anhui, China). Data were expressed as mean ± SD. […] IC50 values of Gom A were determined by nonlinear regression analysis using GraphPad Prism 5.01 software (GraphPad Software Inc., San Diego, CA, USA). The mode of inhibition was verified by Lineweaver-Burk plots of the enzyme kinetic data, and the KI value was determined by linear regression analysis with GraphPad Prism 5.01 (GraphPad Software Inc.). […]

Experiment [4] has as its target T1, CYP3A. The experiment can be described thus: Effect on DCCTX production from CTX in HLMs. In kind it is in vitro ADME. The settings on record: 10 µM inhibitor, HLMs 0.5 mg/mL, CTX substrate; 60 min. Here is the method: The effect of Gom A on CYP3A metabolism of CTX in HLMs was investigated. […] Considering the difficulty for direct CAA determination, DCCTX was assayed to reflect CAA production using an established UHPLC-MS method (II).
The CYP3A inhibitor ketoconazole (Keto) was used as positive control. Briefly, various concentrations of Gom A and Keto (0.01, 0.1, 1 and 10 µM) were incubated with HLMs (0.5 mg/mL) in PBS (0.1 M) containing NADPH-gs and 100 µM CTX in a total volume of 200 µL. After a 5 min warm up period, reactions were initiated with addition of NADPH-gs. Incubations were conducted at 37 °C for 60 min and then terminated by the addition of 200 µL ice-cold acetonitrile containing 6 ng/mL of TNZ (IS-II).

T1 sequence (P08684 2-503): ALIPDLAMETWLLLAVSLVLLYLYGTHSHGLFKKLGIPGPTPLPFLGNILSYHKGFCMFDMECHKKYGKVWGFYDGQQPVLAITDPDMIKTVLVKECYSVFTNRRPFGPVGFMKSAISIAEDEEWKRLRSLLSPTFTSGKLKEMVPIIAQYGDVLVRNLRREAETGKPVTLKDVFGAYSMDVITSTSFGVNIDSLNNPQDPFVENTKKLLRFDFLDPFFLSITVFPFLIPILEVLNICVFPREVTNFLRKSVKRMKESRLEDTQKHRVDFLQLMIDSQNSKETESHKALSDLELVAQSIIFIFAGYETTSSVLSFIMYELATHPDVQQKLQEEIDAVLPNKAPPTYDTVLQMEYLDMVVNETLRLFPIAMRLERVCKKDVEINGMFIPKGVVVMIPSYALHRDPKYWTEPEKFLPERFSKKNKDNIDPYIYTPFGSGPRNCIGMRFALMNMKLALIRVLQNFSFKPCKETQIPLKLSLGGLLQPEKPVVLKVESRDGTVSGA

Gomisin A [Gom A]: the “hepatic CYP3A mRNA expression increase vs vehicle group” value was 73 fold in experiment [1] (24 h after single dose Gom A 20.8 mg/kg i.g.), 18 fold in experiment [1] (48 h after single dose Gom A 20.8 mg/kg i.g.) and 8 fold in experiment [1] (72 h after single dose Gom A 20.8 mg/kg i.g.). Also, the mode of inhibition entry in experiment [2] is listed as “competitive inhibitor”. In addition, in experiment [3] (Gom A 1 µM preincubated 30 min with vs without NADPH-gs, data not shown), the “NADPH dependence of CYP3A inhibition” value was “more potent when Gom A was preincubated with NADPH”. The “shift in IC50” value in experiment [3] (with vs without 30 min preincubation) stood at 1.8 fold. Besides, the “DCCTX production, % of that in control group” value in experiment [4] is listed as 15%.
